Values quoted from earlier work, collected in patent publication US20020136782A1, “Composition patent for solid-dosage form of weight loss product” (priority 2001, published 2002).

Details: non-toxic dose; equivalent doses

## chromium polynicotinate
  chromosome damage: did not cause chromosome damage

## Chromium picolinate
  chromosome damage: significant chromosome damage
